Assay results reported in PubChem BioAssay AID330 (DTP/NCI, 2004).
Values joined by “and” are separate entries in the source; they are usually repeats but may differ in a detail not shown here. Equal values may be shown once. Inconclusive results and toxic doses are left out.

Tested on: P388 leukemia ip, CD2F1 mice, survival T/C
Assay: NCI In Vivo Anticancer Drug Screen. Data for tumor model P388 Leukemia (intraperitoneal) in CD2F1 (CDF1) mice
Conditions: endpoint: median survival time, higher = longer survival
Method in brief: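 Mice carrying the transplanted tumor received test compound or vehicle. Survival was recorded in each group, and the value is the treated-group measurement divided by that of the vehicle-treated control group.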

[1] = dose: 12.5 mg/kg/injection, schedule: Q01DX009 (ip), vehicle: saline
[2] = dose: 25.0 mg/kg/injection, schedule: Q01DX009 (ip), vehicle: saline
[3] = dose: 50.0 mg/kg/injection, schedule: Q01DX009 (ip), vehicle: saline
[4] = dose: 12.5 mg/kg/injection, schedule: Q01DX009 (ip), vehicle: saline with Tween-80
[5] = dose: 25.0 mg/kg/injection, schedule: Q01DX009 (ip), vehicle: saline with Tween-80
[6] = dose: 50.0 mg/kg/injection, schedule: Q01DX009 (ip), vehicle: saline with Tween-80
[7] = dose: 50.0 mg/kg/injection, schedule: Q01DX005 (ip), vehicle: Klucel (hydroxypropylcellulose) (HPC)
[8] = dose: 100.0 mg/kg/injection, schedule: Q01DX005 (ip), vehicle: Klucel (hydroxypropylcellulose) (HPC)
[9] = dose: 200.0 mg/kg/injection, schedule: Q01DX005 (ip), vehicle: Klucel (hydroxypropylcellulose) (HPC)
[10] = dose: 100.0 mg/kg/injection, schedule: Q01DX001 (ip), vehicle: Klucel (hydroxypropylcellulose) (HPC)
[11] = dose: 200.0 mg/kg/injection, schedule: Q01DX001 (ip), vehicle: Klucel (hydroxypropylcellulose) (HPC)
[12] = dose: 400.0 mg/kg/injection, schedule: Q01DX001 (ip), vehicle: Klucel (hydroxypropylcellulose) (HPC)
[13] = dose: 100.0 mg/kg/injection, schedule: Q04DX002 (ip), vehicle: saline with Tween-80
[14] = dose: 200.0 mg/kg/injection, schedule: Q04DX002 (ip), vehicle: saline with Tween-80
[15] = dose: 100.0 mg/kg/injection, schedule: Q01DX009 (ip), vehicle: saline with Tween-80
[16] = dose: 200.0 mg/kg/injection, schedule: Q01DX009 (ip), vehicle: saline with Tween-80
[17] = dose: 100.0 mg/kg/injection, schedule: Q04DX003 (ip), vehicle: saline
[18] = dose: 200.0 mg/kg/injection, schedule: Q04DX003 (ip), vehicle: saline
[19] = dose: 400.0 mg/kg/injection, schedule: Q04DX003 (ip), vehicle: saline
[20] = dose: 60.0 mg/kg/injection, schedule: Q01DX005 (ip), vehicle: saline with Tween-80
[21] = dose: 120.0 mg/kg/injection, schedule: Q01DX005 (ip), vehicle: saline with Tween-80
[22] = dose: 240.0 mg/kg/injection, schedule: Q01DX005 (ip), vehicle: saline with Tween-80
[23] = dose: 60.0 mg/kg/injection, schedule: Q01DX005 (ip), vehicle: Klucel (hydroxypropylcellulose) (HPC)
[24] = dose: 120.0 mg/kg/injection, schedule: Q01DX005 (ip), vehicle: Klucel (hydroxypropylcellulose) (HPC)
[25] = dose: 240.0 mg/kg/injection, schedule: Q01DX005 (ip), vehicle: Klucel (hydroxypropylcellulose) (HPC)
[26] = dose: 100.0 mg/kg/injection, schedule: Q01DX009 (ip), vehicle: saline
[27] = dose: 200.0 mg/kg/injection, schedule: Q01DX009 (ip), vehicle: saline

In the case of `COC(=O)c1ccc(O)cc1`, the T/C (dose: 12.5 mg/kg/injection, schedule: Q01DX005 (ip), vehicle: saline with Tween-80) is reported as 98 % of control, the T/C (dose: 25.0 mg/kg/injection, schedule: Q01DX005 (ip), vehicle: saline with Tween-80) is reported as 99 % of control and the T/C (dose: 50.0 mg/kg/injection, schedule: Q01DX005 (ip), vehicle: saline with Tween-80) is reported as 100 % of control. For the same molecule, the T/C (dose: 100.0 mg/kg/injection, schedule: Q01DX005 (ip), vehicle: saline with Tween-80) was 100 % of control, the T/C (dose: 200.0 mg/kg/injection, schedule: Q01DX005 (ip), vehicle: saline with Tween-80) was 105 % of control and the T/C (dose: 400.0 mg/kg/injection, schedule: Q01DX005 (ip), vehicle: saline with Tween-80) was 100 % of control.

In the case of `CCCCCCCCCCC[N+]1([O-])CCOCC1`, the T/C [1] is reported as 101 % of control, the T/C [2] is reported as 99 % of control and the T/C [3] is reported as 99 % of control and 89 % of control.

`CC1(C)NC(=O)C2(CC(O)C(O)C(OC(=O)c3ccccc3)C2)O1` (configuration not stated) was tested, and the T/C (dose: 25.0 mg/kg/injection, schedule: Q01DX005 (ip), vehicle: saline) was 102 % of control, the T/C (dose: 50.0 mg/kg/injection, schedule: Q01DX005 (ip), vehicle: saline) was 94 % of control and the T/C (dose: 100.0 mg/kg/injection, schedule: Q01DX005 (ip), vehicle: saline) was 99 % of control.

In the case of `O=c1nc2n(c3nccnc13)CCS2`, the T/C [1] is reported as 111 % of control, the T/C [2] is reported as 104 % of control and the T/C [3] is reported as 100 % of control.

With `COc1c2c(c(OC)c3c(OC)c4ccccc4c(OC)c13)CC(=O)CC2` the T/C (dose: 1.56 mg/kg/injection, schedule: Q01DX009 (ip), vehicle: other) was 105 % of control, the T/C (dose: 3.13 mg/kg/injection, schedule: Q01DX009 (ip), vehicle: other) was 101 % of control and the T/C (dose: 6.25 mg/kg/injection, schedule: Q01DX009 (ip), vehicle: other) was 105 % of control. For the same molecule, the T/C (dose: 12.5 mg/kg/injection, schedule: Q01DX009 (ip), vehicle: other) was 101 % of control and the T/C (dose: 25.0 mg/kg/injection, schedule: Q01DX009 (ip), vehicle: other) was 91 % of control.

For `O=[N+]([O-])c1c(Sc2ccccc2)ncnc1Sc1ccccc1`, the T/C [4] was 100 % of control, the T/C [5] was 100 % of control and the T/C [6] was 91 % of control. For the same molecule, the T/C [3] was 95 % of control.

For `CCCCN(CCCC)C(=O)C(O)C(=O)N(CCCC)CCCC`, the T/C (dose: 25.0 mg/kg/injection, schedule: Q01DX005 (ip), vehicle: Klucel (hydroxypropylcellulose) (HPC)) was 104 % of control, the T/C [7] was 104 % of control and the T/C [8] was 98 % of control. The T/C [9] was 109 % of control.

For `CCc1nc(N)nc(N)c1-c1ccc(Cl)c([N+](=O)[O-])c1`, the T/C (dose: 0.78 mg/kg/injection, schedule: Q01DX009 (ip), vehicle: distilled water + Tween-80) was 105 % of control, the T/C (dose: 3.13 mg/kg/injection, schedule: Q01DX009 (ip), vehicle: distilled water + Tween-80) was 120 % of control and 123 % of control and the T/C (dose: 6.25 mg/kg/injection, schedule: Q01DX009 (ip), vehicle: distilled water + Tween-80) was 170 % of control. For the same molecule, the T/C (dose: 12.5 mg/kg/injection, schedule: Q01DX009 (ip), vehicle: distilled water + Tween-80) was 163 % of control.

With `Cc1ccc2c(c1)nc(N)n2N` the T/C [10] was 100 % of control, the T/C [11] was 98 % of control and the T/C [12] was 89 % of control.

In the case of `O=c1cc(CCc2ccccc2)c2ccccc2[nH]1`, the T/C [13] is reported as 94 % of control, the T/C [14] is reported as 94 % of control and the T/C (dose: 400.0 mg/kg/injection, schedule: Q04DX002 (ip), vehicle: saline with Tween-80) is reported as 95 % of control.

With `COc1ccc(-c2cc(=O)c3ccc4c(O)cccc4c3o2)cc1` the T/C [6] was 94 % of control, the T/C [15] was 100 % of control and the T/C [16] was 97 % of control. For the same molecule, the T/C (dose: 400.0 mg/kg/injection, schedule: Q01DX009 (ip), vehicle: saline with Tween-80) was 90 % of control.

In the case of `CC(=O)Nc1ncnc2c1c(C(N)=O)cn2C1OC(COC(C)=O)C(OC(C)=O)C1OC(C)=O` (configuration not stated), the T/C (dose: 1.88 mg/kg/injection, schedule: Q01DX005 (ip), vehicle: saline) is reported as 107 % of control and the T/C (dose: 3.75 mg/kg/injection, schedule: Q01DX005 (ip), vehicle: saline) is reported as 117 % of control.

For `Nc1ccc2c(c1N)C(=O)c1ccccc1C2=O`, the T/C [7] was 101 % of control, the T/C [8] was 100 % of control and the T/C [9] was 100 % of control.

For `C=C[C@@](C)(O)CC/C=C(/C)CCC=C(C)C`, the T/C [5] was 110 % of control, the T/C [6] was 110 % of control and the T/C [15] was 110 % of control. The T/C [17] was 109 % of control, the T/C [18] was 100 % of control and the T/C [19] was 113 % of control.

For `OCCN1CCN(C2=Nc3cccnc3Nc3cscc32)CC1`, the T/C [20] was 101 % of control, the T/C [21] was 111 % of control and the T/C [22] was 96 % of control.

In the case of `NC(=O)c1c(Cl)nc2n1CCS2`, the T/C [23] is reported as 94 % of control, the T/C [10] is reported as 107 % of control and the T/C [24] is reported as 95 % of control. The T/C [11] was 100 % of control, the T/C [25] was 88 % of control and the T/C [12] was 109 % of control.

`ON=C(C1CC1)C1CC1` was tested, and the T/C [5] was 95 % of control, the T/C [6] was 101 % of control and the T/C [15] was 104 % of control. For the same molecule, the T/C [16] was 91 % of control.

For `CC(C)=CCc1c(O)ccc(C(=O)C2C(c3c(O)cc(-c4cc5ccc(O)cc5o4)cc3O)C=C(C)CC2c2ccc(O)cc2O)c1O` (configuration not stated), the T/C (dose: 3.75 mg/kg/injection, schedule: Q01DX005 (ip), vehicle: water) was 94 % of control, the T/C (dose: 7.5 mg/kg/injection, schedule: Q01DX005 (ip), vehicle: water) was 103 % of control and the T/C (dose: 15.0 mg/kg/injection, schedule: Q01DX005 (ip), vehicle: water) was 99 % of control. The T/C (dose: 30.0 mg/kg/injection, schedule: Q01DX005 (ip), vehicle: water) was 110 % of control and the T/C (dose: 60.0 mg/kg/injection, schedule: Q01DX005 (ip), vehicle: water) was 113 % of control.

`CCCC(C(=O)OCCN(CC)CC)(c1ccccc1)c1ccccc1` was tested, and the T/C [1] was 108 % of control, the T/C (dose: 12.5 mg/kg/injection, schedule: Q04DX003 (ip), vehicle: saline) was 100 % of control and the T/C [2] was 100 % of control. The T/C (dose: 25.0 mg/kg/injection, schedule: Q04DX003 (ip), vehicle: saline) was 100 % of control, the T/C [3] was 91 % of control and the T/C (dose: 50.0 mg/kg/injection, schedule: Q04DX003 (ip), vehicle: saline) was 100 % of control.

In the case of `COc1nc(NC2OC(COC(C)=O)C(OC(C)=O)C(OC(C)=O)C2OC(C)=O)c2c(O)coc2n1` (configuration not stated), the T/C (dose: 100.0 mg/kg/injection, schedule: Q01DX001 (ip), vehicle: saline with Tween-80) is reported as 115 % of control, the T/C (dose: 200.0 mg/kg/injection, schedule: Q01DX001 (ip), vehicle: saline with Tween-80) is reported as 106 % of control and the T/C (dose: 400.0 mg/kg/injection, schedule: Q01DX001 (ip), vehicle: saline with Tween-80) is reported as 92 % of control.

For `COC(=O)C(Nc1ccc(OC)cc1)c1ccccc1` (configuration not stated), the T/C [23] was 108 % of control, the T/C [24] was 104 % of control and the T/C [25] was 110 % of control.

`C[CH2][Sn]=[O].c1cc[c]([Ge]([c]2ccccc2)[c]2ccccc2)cc1` was tested, and the T/C [2] was 96 % of control, the T/C [3] was 88 % of control and 93 % of control and 96 % of control and the T/C [26] was 101 % of control and 88 % of control. The T/C [27] was 121 % of control and 88 % of control and 96 % of control.

For `Cc1nn(C(=O)c2ccncc2)c(C)c1N=Nc1nc2ccc([N+](=O)[O-])cc2s1`, the T/C [13] was 97 % of control and the T/C [14] was 94 % of control.

In the case of `CCCCCCCCCCSCC`, the T/C [26] is reported as 95 % of control, the T/C [17] is reported as 100 % of control and the T/C [27] is reported as 100 % of control. The T/C [18] was 91 % of control, the T/C (dose: 400.0 mg/kg/injection, schedule: Q01DX009 (ip), vehicle: saline) was 104 % of control and the T/C [19] was 100 % of control.

In the case of `CCS(=O)(=O)OCCCCOS(=O)(=O)CC`, the T/C [4] is reported as 100 % of control and 97 % of control, the T/C [5] is reported as 103 % of control and 93 % of control and the T/C [6] is reported as 115 % of control and 90 % of control. The T/C [15] was 114 % of control and 90 % of control.

For `CCCn1c(C)nc2c([N+](=O)[O-])cc(C(F)(F)F)cc21`, the T/C [20] was 98 % of control, the T/C [21] was 97 % of control and the T/C [22] was 99 % of control.
